# Laboratory results as given in a melting point compilation (Tetko et al.; mined from patent text by program, amines drawn as free bases though some values may be those of a salt).
row,SMILES,melting point
1,O=C(c1ccc(Br)cc1)C1CCN(CCc2c[nH]c3ccccc23)CC1,178 to 180 °C
2,CN(C)c1n[nH]c(=O)n1N,205 °C
3,CCN1CCCC1CNC(=O)c1c(O)ccc(Br)c1O (stereo unspecified),166 to 168 °C
4,COc1cc2c(cc1OC)N(C)C(=O)CN=C2c1cccc(-c2ccc(Cl)cc2)c1,131 °C
5,CSc1ccc([N+](=O)[O-])c2nonc12,118 to 120 °C
6,CC(=C(C#N)C#N)c1ccc2cc(N3CCN(C(=O)OC(C)(C)C)CC3)ccc2c1,169 to 171 °C
7,CCc1nc2ccc3c(c2nc1CC)OC(COS(=O)(=O)c1ccc(C)cc1)CO3 (stereo unspecified),132 to 135 °C
8,CCOc1cc(Oc2ncc(Cl)cn2)ccc1[N+](=O)[O-],114 to 115 °C
9,CCSc1nnc(CO)n1Cc1ccc(N)cc1,145 to 147 °C
10,NC(=NCC(F)(F)F)Nc1ccnc(CCCO)n1,136 to 138 °C
11,NC(=S)/C=C1\CCc2ccc(F)cc21,178 to 179 °C
12,CCCCCCOc1ccccc1C(=O)CCCCC(=O)O,64 to 65 °C
13,CCOC(=O)c1cnc2nc(C)ccc2c1OCC,82 to 83 °C
14,Cc1cc(C)cc(Oc2c(CO)c(C)[nH]c(=O)c2I)c1,248 to 250 °C
15,Cc1cc2cc(O)c(Cl)c(Cl)c2s1,93 to 95 °C
16,COCCN1CCN(CCCOc2ccc3nc(C#N)nc(NCC(C)(C)C)c3c2)CC1,92 to 94 °C

row,SMILES,melting point
1,Cc1cc(Sc2ccc(O)c(C)c2)ccc1O,124 °C
2,O=C(Oc1ccc(Oc2ccccc2)cc1)N1CCC(OC(=O)N2CCC(OC(=O)N3CCC4(CCCC4)CC3)CC2)CC1,48 to 63 °C
3,CNC(=S)Nc1ccc2c(c1)C(=O)NC(=O)C2(C)C,206 to 207 °C
4,Cc1c(C)n(CC2CCCCC2)c2c(OCc3ccc(F)cc3)nncc12,108 to 109 °C
5,COc1ccc2[nH]c(S(=O)Cc3ncc(C)c(N4CCCCC4)c3Cl)nc2c1 (stereo unspecified),151 to 152 °C
6,CCCCOc1c(CNC(=O)OC(C)(C)C)n(CC(C)C)c(=O)c2ccc(C#N)cc12,126 to 127 °C
7,N#Cc1ccc2c(c1)C(=O)N(C1CCC(=O)NC1=O)C2=O (stereo unspecified),> 260 °C
8,COc1cc2c(Nc3ccc(Sc4nccn4C)c(Cl)c3)c(C#N)cnc2cc1N1CCC(N2CCN(C)CC2)CC1,235 to 237 °C
9,Brc1ccc(CSc2nc(-c3ccncc3)ns2)cc1,132 °C
10,CCC(OC(C)=O)c1ccc(C(OC(C)=O)C(C)(C)C)cc1 (stereo unspecified),64 to 65 °C
11,CC(=O)CC(=O)c1ccccn1,46 to 49 °C
12,CCOC(=O)N1CC(C)N(C(C)C(O)(Cn2cncn2)c2ccc(F)cc2F)CC1C (stereo unspecified),57 to 59 °C
13,CCN(CC)CCCNc1nnc(COC)c2c1cc1n2CCCC1,145 to 147 °C
14,COc1cc2c(cc1OC)CC(N)CC2 (stereo unspecified),83 to 86 °C
15,CCN(CC)c1ccnc2sc(C(N)=O)c(N)c12,127 to 129 °C

# The next lines start with the values.
row,melting point,SMILES
1,150 to 153 °C,C[C@H](NC(=O)OC(C)(C)C)C(=O)NCc1cccc(Nc2n[nH]c3ncnc(Nc4cccc(Cl)c4)c23)c1
2,109 to 110 °C,CCN(CC)CCCNC(=S)N1CC(Oc2ccc(C(F)(F)F)cc2)C1
3,305 to 307 °C,N=C(N)Nc1nc2ccc([N+](=O)[O-])cc2[nH]1
4,163 to 166 °C,Nc1cccc(Cn2c(-c3ccc(C4=CC=CNC4)cc3)ccc2-c2ccccc2Cl)n1
5,117 to 120 °C,CC(OC(=O)c1cn(-c2ccc(F)cc2)c(-c2ccc(N(C)C)cc2)cc1=O)OC(=O)C(C)(C)C (stereo unspecified)
6,179 to 181 °C,N#CCOc1ccc2cc(-c3cc4ccccc4s3)ccc2c1Br
7,156 to 159 °C,COC(=O)c1ccc(NC(=O)OCC2c3ccccc3-c3ccccc32)cc1O
8,249 to 251 °C,Cc1cc(C)c2ncc(NC(=O)C=Cc3cc(C)c(O)c(C)c3)c(-c3ccccc3Cl)c2c1
9,168 to 172 °C,O=C(O)c1ccc(CC(=O)c2ccccc2Cl)cc1
10,148 to 150 °C,COc1ccc(C)cc1NC(=O)Nc1ccc(N2CCN(C(=O)Nc3ccc(OCC(O)CO)cc3C)CC2)cc1 (stereo unspecified)
11,> 230 °C,CCCNC(=O)C=C1SC(Nc2c(Cl)cccc2Cl)=NC1=O
12,178 to 180 °C,O=C(O)CCCc1ccc(NS(=O)(=O)c2ccc(Cl)cc2)cn1
13,147 to 148 °C,Cc1c(C#N)c(-c2ccc(C#N)cc2)c(C)n1Cc1cnc(Cl)c(CO)c1
14,122 to 123 °C,O=C(Nc1ccc(-n2nc(C(F)(F)F)cc2OC(F)F)cc1)c1ccccc1Cl
15,224 to 227 °C,NC(=O)CCN1C(=O)[C@@H](CC(=O)NCCc2ccc(Br)cc2)S[C@H]1c1ccc(C#Cc2ccccc2)s1 (relative stereo)
16,148 to 149 °C,O=C(O)CCCCCCCn1c(Cc2ccccc2)nc(-c2ccccc2)c1-c1ccccc1
17,127 to 129 °C,CCCCC1c2ccccc2-c2ccccc2N1S(=O)(=O)c1ccc(OC)cc1 (stereo unspecified)
18,85 °C,C=CCOC(=O)c1cnn(-c2c(Cl)cc(Br)cc2Cl)c1N
19,263 °C,COc1ccc(S(=O)(=O)N2C(=O)C(c3ccccc3OC)(N3CCc4ccccc4[C@H]3C(=O)N(C)C)c3cc(Cl)ccc32)c(OC)c1 (stereo partly specified)
20,90 to 93.5 °C,CCCCOc1cc(OCCCC)c(C(=O)O)c(C(F)(F)F)n1

row,melting point,SMILES
1,121 to 123 °C,Cc1cccc2c1nc(-c1cccc3ccccc13)n2Cc1c(F)cccc1F
2,179 °C,c1ccc(Oc2ccc3[nH]c4c(c3c2)CNCC4)cc1
3,220 to 222 °C,O=C(O)[C@H](CSc1ccccc1[N+](=O)[O-])N1C(=O)c2ccccc2C1=O
4,152 to 154 °C,COCCNc1ccc2ncnc(Nc3ccc(F)c(Cl)c3)c2c1
5,75 to 76 °C,Cc1cc(F)ccc1NCC(=O)NCc1ccccc1
6,125 to 127 °C,Cc1c(O[Si](C)(C)C(C)(C)C)cc(N2C(=O)c3ccccc3C2=O)cc1C(=O)OCc1ccc([N+](=O)[O-])cc1
7,141 °C,Cc1nc2c(OCc3ccccc3)cccn2c(=O)c1CCCl
8,59 to 60 °C,Cc1ccc(S(=O)(=O)OCCCC2CCN(C(=O)OCc3ccccc3)CC2)cc1
9,130 °C,O=C(CN1C(=O)c2ccccc2C1=O)Nc1ccccc1C(=O)N1CCCc2ccccc21
10,165 to 167 °C,N#Cc1cccc2c1CC(=O)c1ccccc1S2
11,298 to 300 °C,NC(=O)c1ccc(OC2CCN(c3ccncc3)C2)cc1 (stereo unspecified)
12,114 to 119 °C,OC1CSC(Oc2cccnc2-c2ccc(OC(F)(F)F)cc2)C(O)C1O (stereo unspecified)
13,150 to 152 °C,CC(C)C12COc3cc(Cl)ccc3C1=NN(C(=O)Nc1ccc(C(F)(F)F)cc1)C2 (stereo unspecified)
14,146 to 148 °C,COc1ccccc1C1CC(=O)CC(c2ccccc2OC)N1C (stereo unspecified)
15,226 to 227 °C,O=C(O)C1=C(c2ccccc2)c2cc(Cl)ccc2OC1C(F)(F)F (stereo unspecified)
16,102 to 104 °C,Cc1cc(N)ccc1C(O)c1ccccn1 (stereo unspecified)
17,88 to 90 °C,COC(=O)[C@@H](NC(=O)Nc1n[nH]c(=S)s1)[C@@H](C)OCc1ccccc1
18,> 300 °C,O=C(O)CN1C(=O)C(=Cc2ccccc2C(=O)O)SC1=S
19,220 °C,O=C1CCc2cc(Br)c(NC(=O)C(F)(F)F)cc21
20,175 to 176 °C,Oc1ccc(N2CCN(Cc3nc4ccccc4s3)CC2)cc1
